Patent US9604983B2, “Herbicidal 3-(2-benzyloxyphenyl)-2,4-dihydroxy-1,8-naphthyridine derivatives” (SYNGENTA LIMITED, priority 2013, dated 2017)

How the values were obtained:
Experiment in all cases: Post-emergence efficacy, glasshouse pot test
Type in all cases: in vivo
Settings in all cases: post-emergence application at 1000 g/ha; evaluated after 13 days; five point scale
[1] = tested on: Alopecurus myosuroides (ALOMY)
Procedure: (§1) B1 Post-emergence Efficacy Seeds of a variety of test species are sown in standard soil in pots:—Solanum nigrum (SOLNI), Amaranthus retoflexus (AMARE), Setaria faberi (SETFA), Alopecurus myosuroides (ALOMY), Echinochloa crus-galli (ECHCG), Ipomoea hederacea (IPOHE). After 8 days cultivation (post-emergence) under controlled conditions in a glasshouse (at 24/16° C., day/night; 14 hours light; 65% humidity), the plants are sprayed with an aqueous spray solution derived from the formulation of the technical active ingredient in acetone/water (50:50) solution containing 0.5% Tween 20 (polyoxyethelyene sorbitan monolaurate, CAS RN 9005-64-5). Compounds are applied at 1000 g/ha. The test plants are then grown in a glasshouse under controlled conditions in a glasshouse (at 24/16° C., day/night; 14 hours light; 65% humidity) and watered twice daily. After 13 days, the test is evaluated for the percentage damage caused to the plant. The biological activities are shown below in Table 13, on a five point scale (5=80-100%; 4=60-79%; 3=40-59%; 2=20-39%; 1=0-19%).

Solanum nigrum (SOLNI) = tested on: Solanum nigrum (SOLNI)
Procedure: as §1

Setaria faberi (SETFA) = tested on: Setaria faberi (SETFA)
Procedure: as §1

[2] = tested on: Ipomoea hederacea (IPOHE)
Procedure: as §1

[3] = tested on: Amaranthus retoflexus (AMARE)
Procedure: as §1

[4] = tested on: Echinochloa crus-galli (ECHCG)
Procedure: as §1

C#CCn1c(=O)c(-c2c(F)ccc(Cl)c2OCc2ccccc2)c(OC(=O)C(C)C)c2nccnc21 [Compound 5.003]
2 (2=20-39%): percentage damage caused to the plant, ALOMY [1] | percentage damage caused to the plant, ECHCG [4]
5 (5=80-100%): percentage damage caused to the plant, SOLNI (Solanum nigrum (SOLNI)) | percentage damage caused to the plant, SETFA (Setaria faberi (SETFA)) | percentage damage caused to the plant, IPOHE [2] | percentage damage caused to the plant, AMARE [3]
